These results are taken from patent US4761409A, “Cephem derivatives” (Sumitomo Pharmaceuticals Company, Limited, priority 1984, dated 1988).

In brackets after ≈: the same amount, converted by molar mass.

In series [1] the test system is resistant bacteria which produce β-lactamase. The following applies: background, cephem antibiotics for oral administration; cited from earlier work.
For another series, the system named is bacteria. The following applies: background, compared with commercially available cephem antibiotics; cited from earlier work.
The subject of series [2] is Staphylococcus epidermidis IAM1296. As to the kind of experiment: in vitro antimicrobial activity test (MIC). The series is classed as cell-based.
Series [3] has as its system Citrobacter freundii GN346. As to the kind of experiment: in vitro antimicrobial activity test (MIC). The series is classed as cell-based.
Series [4] deals with Staphylococcus aureus 209P. The series is described as follows: in vitro antimicrobial activity test (MIC). The class given is cell-based.
For series [5], the system named is Escherichia coli NIHJ JC-2. As to the kind of experiment: in vitro antimicrobial activity test (MIC). The following applies: NIHJJC2. The class given is cell-based.
In a further series the test system is Serratia marcescens X100. The series is described as follows: in vitro antimicrobial activity test (MIC). The series is classed as cell-based.
Series [6] is described as follows: oral absorbability test: urinary excretion in mice after oral administration. The class given is in vivo. The following applies: mouse, urine, dose: 50 mg/kg, read-out: Urinary excretion rate in mice after oral administration.

As for `N[C@@H](C(=O)N[C@@H]1C(=O)N2C(C(=O)O)=C(CSc3c[nH]nn3)CS[C@H]12)c1ccc(O)cc1` [cefatrizine], in series [1], the “activity on resistant bacteria which produce β-lactamase” value is given as “ineffective”. For the same molecule, the “antimicrobial activity and width of the antimicrobial spectrum” value (shortened to “antimicrobial activity and width”) in the series on bacteria is on record as “slightly inferior”.
Broadly, the MIC is the smallest concentration in the dilution series that meets the test's criterion for growth inhibition. A higher MIC goes with a less susceptible organism. As for `CO/N=C(\C(=O)NC1C(=O)N2C(C(=O)O)=C(CSc3ncns3)CS[C@H]12)c1cscn1` (stereo partly drawn) [Example 2, 7-[(Z)-2-Methoxyimino-2-(thiazol-4-yl)acetamido]-3-(1,2,4-thiadiazol-5-yl)thiomethyl-3-cephem-4-carboxylic acid], the MIC in series [2] was found to be 1.56 µg/mL (≈ 3.13 µM); in series [3] it was 0.78 µg/mL (≈ 1.56 µM); in series [4] it was 0.2 µg/mL (≈ 0.401 µM); in series [5] it was 0.2 µg/mL (≈ 0.401 µM); in the series on Serratia marcescens X100, 0.78 µg/mL (≈ 1.56 µM).
`CO/N=C(\C(=O)NC1C(=O)N2C(C(=O)O)=C(CSc3nc(C)ns3)CSC12)c1cscn1` (stereo not drawn) [Example 1, 7-[(Z)-2-Methoxyimino-2-(thiazol-4-yl)acetamido]-3-(3-methyl-1 2,4-thiadiazol-5-yl)thiomethyl-3-cephem-4-carboxylic acid]: the MIC in series [2] is 1.56 µg/mL (≈ 3.04 µM); in series [3], 0.78 µg/mL (≈ 1.52 µM); in series [4] it was 0.1 µg/mL (≈ 0.195 µM); in series [5] it was 0.1 µg/mL (≈ 0.195 µM); in the series with Serratia marcescens X100 it was 0.78 µg/mL (≈ 1.52 µM).
On to `CO/N=C(\C(=O)NC1C(=O)N2C(C(=O)OCc3oc(=O)oc3C)=C(CSc3ncns3)CS[C@H]12)c1cscn1` (stereo partly drawn) [Example 15, (5-Methyl-2-oxo-1,3-dioxolen-4-yl)methyl-7-[(Z)-2-methoxyimino-2-(thiazol-4-yl)acetamido]-3-(1,2,4-thiadiazol-5-yl)thiomethyl-3-cephem-4-carboxylate], for which the dose excreted in series [6] was 32%.
With `CCOC(=O)OC(C)OC(=O)C1=C(CSc2nc(C)ns2)CS[C@@H]2C(NC(=O)/C(=N\OC)c3cscn3)C(=O)N12` (stereo partly drawn) [Example 6, 1-Ethoxycarbonyloxyethyl 7-[(Z)-2-methoxyimino-2-(thiazol-4-yl)acetamido]-3-(3-methyl-1,2,4-thiadiazol-5-yl)thiomethyl-3-cephem-4-carboxylate], the dose excreted in series [6] came to 32%.
As to `N[C@@H](C(=O)N[C@@H]1C(=O)N2C(C(=O)O)=C(Cl)CS[C@H]12)c1ccccc1` [cefaclor], the “activity on resistant bacteria which produce β-lactamase” value in series [1] is “ineffective”. In addition, the “antimicrobial activity and width” value in the series on bacteria is on record as “slightly inferior”.
Regarding `CC1=C(C(=O)O)N2C(=O)[C@@H](NC(=O)[C@H](N)c3ccccc3)[C@H]2SC1` [cephalexin], in series [1], the “activity on resistant bacteria which produce β-lactamase” value was “ineffective”. The “antimicrobial activity and width” value in the series with bacteria was “slightly inferior”.
